This is an account of results in patent publication US20100041756A1, “METHOD OF MODULATING B CELL FUNCTIONING” (priority 2004, published 2010).

Common to all, as to assay type: cell-based, mouse
The test system of experiment [1] is T cells stimulated with anti-CD3/anti-CD28. Nature of the experiment: Cytokine production by stimulated T cells in vitro (ELISA). How it is done:
(§1) FIG. 10 is a graphical representation depicting that 3,4-DAA and 3-HAA inhibit B and T cell proliferation in vitro. Purified B and T cells were stimulated for 72 h with anti-CD40 (a), or anti-CD3/anti-CD28 (b) respectively, in the presence of varying doses of 3,4-DAA, or 3-HAA.
(§2) A single cell suspension was prepared from spleen by mincing through a cell strainer, and erythrocytes were lysed using an ammonium chloride solution (Sigma, St Louis, Mo., USA). B cells were positively enriched by using anti-IgM MACS microbeads, and T cells were positively enriched using anti-CD4 MACS microbeads and the MACS system, according to the manufacturer's guidelines (Miltenyi Biotec, Bergisch Gladbach, Germany). Purity was assessed by flow cytometric analysis (B cell>90% CD19+, T cell>90% CD4+). Cells were cultured at 5×10^5 cells/ml in 200 μl complete RPMI, as above, in a flat bottom 96-well plate and cultured for 72 h. B cells were stimulated with anti-CD40 monoclonal antibody (10 μg/ml; BD), and T cells were stimulated with 5 μg/ml plate-bound anti-CD3 (BD), 5 μg/ml soluble anti-CD28 (BD). Tranilast, 3-HAA, or vehicle (DMSO) were incubated at concentrations stated with the cultures. 48 hours after stimulation, 100 μl culture medium was collected, and cells were pulsed with 1 μCi ^3H thymidine per well for 18 h. Cells were then harvested and plates assessed for incorporation. Each assay was performed on a minimum of 3 occasions. Data shown is of one representative experiment, and is expressed as mean+/−SD of triplicate in culture. IFN-γ, IL-10 and IL-5 levels was assessed in the culture medium by ELISA, as above.
On the technique in general: An ELISA detects its analyte on a solid surface through an enzyme-linked reagent.

The test system is the same in experiment [2]. Nature of the experiment: Purified T cell proliferation, anti-CD3/anti-CD28, 3H-thymidine incorporation (Example 4). The procedure:
as §1, §2
Background: Dividing cells build labelled thymidine or BrdU into new DNA.

The subject of experiment [3] is B cells stimulated with anti-CD40. Kind of experiment: Purified B cell proliferation, anti-CD40, 3H-thymidine incorporation (Example 4). The procedure:
as §1, §2

Turning to `Nc1c(O)cccc1C(=O)O` [3-HAA, 3-Hydroxyanthranilic acid], in experiment [1] (FIG. 10C), the “IFN-γ production by T-cells” value is reported as “dose-dependently reduced”. For the same compound, the “IL-10 production by T-cells” value in experiment [1] (FIG. 10D) is listed as “increased”. In experiment [1] (FIG. 10E), the “IL-5 production by T-cells” value is recorded as “increased”. The IC50 in experiment [2] (Mus musculus, T-cell, anti-CD3/CD28, 72 h, 3H-thymidine (FIG. 10B), read-out: IC50 for inhibition of T cell proliferation) came to 100 µM; in experiment [3] (Mus musculus, B-cell, anti-CD40, 72 h, 3H-thymidine (FIG. 10A), read-out: IC50 for inhibition of B cell proliferation), 64.7 µM. Besides, the T cell proliferation result in experiment [2] (anti-CD3/CD28, varying doses (FIG. 10B)) was “dose-dependently inhibited”. Further, the B cell proliferation result in experiment [3] (anti-CD40, varying doses (FIG. 10A)) is reported as “dose-dependently inhibited”.
